Values quoted from earlier work as cited in patent US11278709B1, “Drug delivery device and methods for using same” (Pocket Naloxone Corp., priority 2021, dated 2022).

Conditions: 4 mg dose via a nasal spray

In the case of C=CCN1CC[C@]23c4c5ccc(O)c4O[C@H]2C(=O)CC[C@@]3(O)[C@H]1C5 [naloxone], the AUClast is given as 7.95 ng·h/mL and the Cmax is given as 4.83 ng/mL.
